Like-named read-outs stand apart in the source and are kept apart here.
Experiments:
Wheat head blight = experiment: whole plant or invertebrate; assay type: cell-based; conditions: Triticum aestivum, read-out: Fungicidal activity (%) Wheat head blight
[1] = test system: Corn southern leaf blight; experiment: In vitro fungicidal activity, PDA colony diameter; assay type: cell-based; conditions: 50 mg/kg, inhibition of colony diameter; read-out: Fungicidal activity (%) Corn southern leaf blight
Cotton bollworms = experiment: Test of insecticidal activity against cotton bollworms (pesticide mixed into feedstuff); conditions: read-out: Mortalities (%) Cotton bollworms
Description: Method of testing against cotton bollworms: the pesticide is mixed into the feedstuff, i.e., 3 mL prepared solution is added into about 27 g freshly prepared feedstuff; thus, required concentration is obtained by diluting by 10 times.

Rice sheath blight = experiment: In vitro fungicidal activity, PDA colony diameter; assay type: cell-based; conditions: 50 mg/kg, inhibition of colony diameter; read-out: Fungicidal activity (%) Rice sheath blight
Tomato early blight = experiment: In vitro fungicidal activity, PDA colony diameter; assay type: cell-based, Alternaria solani; conditions: 50 mg/kg, inhibition of colony diameter; read-out: Fungicidal activity (%) Tomato early blight
Armyworms = experiment: Test of insecticidal activity against armyworms (leaf immersion); conditions: 600 mg/kg, 3-4 days
Watermelon anthracnose = experiment: In vitro fungicidal activity, PDA colony diameter; assay type: cell-based; conditions: 50 mg/kg, inhibition of colony diameter; read-out: Fungicidal activity (%) Watermelon anthracnose
[2] = test system: bean aphides (Aphis laburni Kaltenbach); experiment: Test of insecticidal activity against aphides (leaf immersion, checked after 96 h)
Description: The insecticidal activity against aphides is tested through the following steps: the tested aphides are bean aphides (Aphis laburni Kaltenbach), a normal colony fed with broad bean leaves in a laboratory. The pesticide is weighed, 1 mL DMF is added to dissolve the pesticide, then two drops of emulsifier, Tween-20 are added, and distilled water is added in an appropriate amount; the mixture is stirred to a homogeneous state to prepare pesticide solution at required concentration (see the following table for the specific concentration). […] In a control group, only emulsifier and solvent are added into distilled water, and the mixture is stirred to a homogeneous state.

Maize borers = experiment: Test of insecticidal activity against maize borers (leaf immersion); conditions: read-out: Mortalities (%) Maize borers
Potato late blight = experiment: microbe, parasite or virus in culture; assay type: cell-based; conditions: Phytophthora infestans, 96 h, read-out: Fungicidal activity (%) Potato late blight
Sclerotinia rot of colza = experiment: In vitro fungicidal activity, PDA colony diameter; assay type: cell-based; conditions: 96 h, 50 mg/kg, inhibition of colony diameter, read-out: Fungicidal activity (%) Sclerotinia rot of colza
[3] = test system: a variety of pathogenic fungi; experiment: In vitro fungicidal activity, summary over the tested fungi; assay type: cell-based; conditions: 50 mg/kg
Description: Here, the test is described in an example of Alternaria solani; it can be replaced by other fungi.
In vitro testing method: Alternaria solani is inoculated to a PDA culture medium and cultured for 7 days, a fungus dish with a diameter of […] is prepared on the periphery of the colony with a punch and inoculated to a PDA culture medium that contains pesticide at a concentration of 50 mg/kg and a PDA culture medium that doesn't contain the pesticide, and are cultured for 4 days respectively; then, the colony diameters are measured, and the inhibition percentages of the pesticides are calculated by comparing with the control sample.

Wheat sheath blight = experiment: In vitro fungicidal activity, PDA colony diameter; assay type: cell-based; conditions: 50 mg/kg, inhibition of colony diameter; read-out: Fungicidal activity (%) Wheat sheath blight
[4] = test system: mosquito larvae (Culer pipiens pallens); experiment: Test of insecticidal activity against mosquito larvae (checked after 24 h)
Rice bakanae disease = experiment: In vitro fungicidal activity, PDA colony diameter; assay type: cell-based; conditions: read-out: Fungicidal activity (%) Rice bakanae disease
Cucumber fusarium wilt = experiment: In vitro fungicidal activity, PDA colony diameter; assay type: cell-based; conditions: 96 h, 50 mg/kg, inhibition of colony diameter, read-out: Fungicidal activity (%) Cucumber fusarium wilt
[5] = test system: Cercospora brown spot of peanut; experiment: In vitro fungicidal activity, PDA colony diameter; assay type: cell-based; conditions: 96 h, 50 mg/kg, inhibition of colony diameter, read-out: Fungicidal activity (%) Cercospora brown spot of peanut
Apple ring rot = experiment: In vitro fungicidal activity, PDA colony diameter; assay type: cell-based; conditions: inhibition of colony diameter
Procedure, shortened: (§1)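 Mycelial plugs cut from the edge of 7-day PDA colonies placed on PDA containing 50 mg/kg compound or on compound-free PDA, grown 4 days. Colony diameters measured; percent inhibition calculated against untreated control.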

[6] = test system: Capsicum phytophthora blight; experiment: In vitro fungicidal activity, PDA colony diameter; assay type: cell-based; conditions: 96 h
Procedure, shortened: as §1

[7] = Aphis, 96 h, read-out: Mortalities (%) against aphides
[8] = 24 h, read-out: Mortalities (%) against mosquito larvae
[9] = 50 mg/kg, inhibition of colony diameter

SMILES	inhibition at 50 mg/kg (Wheat head blight) [%]	inhibition at 50 mg/kg [1] [%]	mortality at 600 mg/kg (Cotton bollworms) [%]	inhibition at 50 mg/kg (Rice sheath blight) [%]	inhibition at 50 mg/kg (Tomato early blight) [%]	Mortalities (%) Armyworms (Armyworms) [%]	inhibition at 50 mg/kg (Watermelon anthracnose) [%]	mortality at 10 mg/kg [2, 7] [%]	mortality at 100 mg/kg [2, 7] [%]	mortality at 600 mg/kg [2, 7] [%]	mortality at 600 mg/kg (Maize borers) [%]	inhibition of growth at 50 mg/kg (Potato late blight) [%]	inhibition of growth at 50 mg/kg (Sclerotinia rot of colza) [%]	inhibition at 50 mg/kg (Wheat sheath blight) [%]	mortality at 10 mg/kg [4, 8] [%]	inhibition at 50 mg/kg (Rice bakanae disease; [9]) [%]	inhibition of growth at 50 mg/kg (Cucumber fusarium wilt) [%]	inhibition of growth at 50 mg/kg [5] [%]	inhibition at 50 mg/kg (Apple ring rot) [%]	inhibition of growth at 50 mg/kg [6] [%]	other results
CCCCS(=O)(=O)NN1CC(C)=NNC1=O [Ia-4, N-(6-methyl-3-oxo-2,3-dihydro-1,2,4-triazin-4(5H)-yl)-n-butylsulfonamide]	6.7	33.3	0	34.9	14.3	5	25	20	70	85	5	40.7	48.3	70.5	20	38.9	0	15.8	31	46.9	fungicidal activity against a variety of pathogenic fungi [3]: outstanding fungicidal activity
CC1=NNC(=O)N(N(S(=O)(=O)c2ccccc2)S(=O)(=O)c2ccccc2)C1 [Ib-5, N-(6-methyl-3-oxo-2,3-dihydro-1,2,4-triazin-4(5H)-yl)-N-(benzenesulfonyl)-benzenesulfonamide]	10	25	20	27	38.1	40	20.8	50	90	100	25	22.2	40	68.2	60		15	36.8	44.8	42.9	mortality at 5 mg/kg [2, 7]: 10%; fungicidal activity against a variety of pathogenic fungi [3]: outstanding fungicidal activity; inhibition at 50 mg/kg (Rice bakanae disease): 22.2%
CC1=NNC(=O)N(NS(=O)(=O)c2ccc(C)cc2)C1 [Ia-12, 4-methyl-N-(6-methyl-3-oxo-2,3-dihydro-1,2,4-triazin-4(5H)-yl)-benzenesulfonamide]	13.3	33.3	30	27	33.3	15	33.3	100	100	100	10	29.6	70	72.7	100	27.8	25	42.1	41.4	40.8	mortality at 2.5 mg/kg [2, 7]: 30%; mortality at 5 mg/kg [2, 7]: 100%; fungicidal activity against a variety of pathogenic fungi [3]: outstanding fungicidal activity; mortality at 2 mg/kg [4, 8]: 10%; mortality at 5 mg/kg [4, 8]: 100%
CCS(=O)(=O)NN1CC(C)=NNC1=O [Ia-2, N-(6-methyl-3-oxo-2,3-dihydro-1,2,4-triazin-4(5H)-yl)-ethylsulfonamide]	20	29.2	5	34.9	33.3	10	33.3	50	90	100	15	22.2	56.7	63.6	20	50	5	15.8	20.7	36.7	
CC(=O)Nc1ccc(S(=O)(=O)N(N2CC(C)=NNC2=O)S(=O)(=O)c2ccc(NC(C)=O)cc2)cc1 [Ib-8, 4-acetamido-N-(6-methyl-3-oxo-2,3-dihydro-1,2,4-triazin-4(5H)-yl)-N-(4-acetamidobenzenesulfonyl)-benzenesulfonamide]	0	16.7	15	27	23.8	20	12.5		50	90	15	29.6	33.3	45.5	30	22.2	0	15.8	27.6	20.4	
CC1=NNC(=O)N(NS(=O)(=O)c2ccc(I)cc2)C1 [Ia-23, 4-iodo-N-(6-methyl-3-oxo-2,3-dihydro-1,2,4-triazin-4(5H)-yl)-benzenesulfonamide]	10.8	25	30	29.1	19.4	25	68.4	100	100	100	20	34.3	31.6	21.7	100	20.7	8.8	28	25.7	38.9	insecticidal activity against aphides compared with pymetrozine ([2]; 5 mg/kg): equivalent to the insecticidal activity of pymetrozine; mortality at 5 mg/kg [2, 7]: 45%; mortality at 1 mg/kg [4, 8]: 30%; mortality at 2 mg/kg [4, 8]: 100%; mortality at 5 mg/kg [4, 8]: 100%; insecticidal activity against mosquito larvae ([4]; in vivo): relatively high insecticidal activity
